# Test results taken from patent publication US20060089352A1, “Substituted thiazines as material protecting agents” (priority 2002, published 2006).
# What was measured:
# Format in all cases: cell-based
# [1] = tested on: Chaetomium globosum; assay: Minimum inhibitory concentration (MIC) on malt extract agar; details: 2 weeks incubation at 28° C., 60 to 70% relative atmospheric humidity
# Procedure: (§1) The MIC was determined after 2 weeks of incubation at 28° C. and 60 to 70% relative atmospheric humidity. The MIC is the lowest concentration of active compound at which there is no colonization by the microbial species used; it is indicated in Table 2.
# [2] = tested on: Aspergillus niger; assay: as above; details: 2 weeks incubation at 28° C., 60 to 70% relative atmospheric humidity
# Procedure: as §1
# [3] = tested on: Penicillium brevicaule; assay: as above; details: 2 weeks incubation at 28° C., 60 to 70% relative atmospheric humidity
# Procedure: as §1
# [4] = tested on: mold fungi (Alternaria tenuis, Aspergillus flavus, Aspergillus niger, Aspergillus ustus, Cindosporum herbarum, Paecilomyces variotii, Penicillium citrium …); assay: Test of dispersion coatings for resistance to mold; details: coatings according to recipe A containing 1.5% (based on solids) of compound; even after rinsing out and wind tunnel exposure; 2-3 weeks storage, 29±1° C., 80-90% rel. humidity
# Procedure: To test dispersion coatings for resistance to mold, the following procedure was adopted:
# The paint to be tested was applied to both sides of a suitable base. To obtain results which are close to practice, some of the test specimens were rinsed out with running water (24 h, 20° C.) before the test for mold resistance; others were treated with a current of warm fresh air (7 days, 40° C.).
# The samples prepared in this way were then placed on an agar nutrient medium, and both samples and nutrient medium were contaminated with fungal spores. After 2-3 weeks storage (29±1° C., 80-90% rel. atmospheric humidity), the samples were compared.
# The coating is considered to be permanently mold-resistant if the sample remains free from fungus or at most a slight border infestation can be detected.
# For the contamination, fungal spores of the following mold fungi were used, which are known as paint destroyers or are frequently encountered on coatings: • Alternaria tenuis • Aspergillus flavus • Aspergillus niger • Aspergillus ustus • Cindosporum herbarum • Paecilomyces variotii • Penicillium citrium • Aureobasidium pullulans • Stachybotrys chartarum
# Recipe A: Exterior dispersion paint based on Acroal 290 D (styrene acrylate)
Structure (SMILES),Minimum inhibitory concentrations Chaetomium globosum [1] [ppm],Minimum inhibitory concentrations Aspergillus niger [2] [ppm],Minimum inhibitory concentrations Penicillium brevicaule [3] [ppm],Mold resistance of coating [4]
CC1CCN=C(Sc2ccccc2)S1 (centres unmarked) [Example 62],<100,<100,<50,–
CC1CN=C(Sc2ccc(Cl)cc2)SC1 (centres unmarked) [Example 6],20,50,20,–
c1ccc(SC2=NC3CCCC3CS2)cc1 (centres unmarked) [Example 81],<100,–,200,–
CC1CN=C(Sc2ccccc2)SC1 (centres unmarked) [Example 11],<50,<50,<50,–
COc1cccc(SC2=NCCC(C)S2)c1 (centres unmarked) [Example 67],<100,<200,<100,–
CC1(C)CN=C(Sc2cccs2)SC1 [Example 45],<50,<200,<50,–
CC1(C)CN=C(Sc2cccc(F)c2)SC1 [Example 51],<200,200,<200,–
c1csc(SC2=NC3CCCC3CS2)c1 (centres unmarked) [Example 79],<100,–,100,–
Cc1ccc(SC2=NC3CCCC3CS2)cc1 (centres unmarked) [Example 82],100,–,–,–
COc1ccc(SC2=NCC(C)(C)CS2)cc1 [Example 47],–,–,–,mold resistant
COc1ccc(SC2=NC3CCCCC3CS2)cc1 (centres unmarked) [Example 4],100,–,–,–
CC1(C)CCSC(Sc2ccc(Cl)cc2)=N1 [Example 61],200,–,–,–
COc1ccc(SC2=NCC(C)CS2)cc1 (centres unmarked) [Example 1],<100,<200,<100,–
